The text below walks through data of patent US20110251428A1 (priority 2006, published 2011).

Experiment [1] deals with yeast [PSI^+] prion. The conditions noted are these: cited from earlier work.
Experiment [2] deals with yeast [PSI^+] prion. It counts as cell-based.
The test system of another experiment is [URE3] prion. The format is cell-based.

“Also recorded” adds a separate entry of the source.

Take `CN(C)CCCN1c2ccccc2Sc2ccc(Cl)cc21` [chlorpromazine]: the “activity in the yeast-based method (earlier study)” value in the experiment with yeast [PSI^+] prion [1] was “active”.

`CCN(CC)CCCC(C)Nc1c2ccc(Cl)cc2nc2ccc(OC)cc12` (stereo not drawn) [quinacrine]: the “activity in the yeast-based method (earlier study)” value in the experiment with yeast [PSI^+] prion [1] is recorded as “active”.

With `N=C(N)N/N=C/c1c(Cl)ccc(Cl)c1Cl` [PSI210], in the experiment on yeast [PSI^+] prion [2], the “activity against yeast [PSI+] prion (halo of red colonies)” value is on record as “strongest activity; also recorded: more potent than Guanabenz itself”.

On to `CC(=O)O.N=C(N)N/N=C/c1c(Cl)cccc1Cl` [Guanabenz acetate], for which the “activity against yeast [PSI+] prion (halo of red colonies)” value in the experiment with yeast [PSI^+] prion [2] was “strongly active; also recorded: very active”. Besides, the “activity against [URE3] prion” value in experiment [URE3] prion is given as “also active; also recorded: also very active”.

`Clc1cccc(Cl)c1N=C1NCCN1` [Clonidine]: in the experiment on yeast [PSI^+] prion [2], the “anti-prion activity (data not shown)” value is “did not exhibit any anti-prion activity”.
